Assay results published in patent US5453524A, “Phosphorus-containing isoprenoid derivatives” (Eisai Co., Ltd., priority 1991, dated 1995).
Where a name gives a salt, the structure may show the parent alone.

Biological target: T1, squalene synthetase (Rattus norvegicus, UniProt Q02769)
T1 construct: from tissue; host or cells: liver microsomes of cholestyramine-fed Sprague-Dawley rat
T1 sequence (Q02769 1-416): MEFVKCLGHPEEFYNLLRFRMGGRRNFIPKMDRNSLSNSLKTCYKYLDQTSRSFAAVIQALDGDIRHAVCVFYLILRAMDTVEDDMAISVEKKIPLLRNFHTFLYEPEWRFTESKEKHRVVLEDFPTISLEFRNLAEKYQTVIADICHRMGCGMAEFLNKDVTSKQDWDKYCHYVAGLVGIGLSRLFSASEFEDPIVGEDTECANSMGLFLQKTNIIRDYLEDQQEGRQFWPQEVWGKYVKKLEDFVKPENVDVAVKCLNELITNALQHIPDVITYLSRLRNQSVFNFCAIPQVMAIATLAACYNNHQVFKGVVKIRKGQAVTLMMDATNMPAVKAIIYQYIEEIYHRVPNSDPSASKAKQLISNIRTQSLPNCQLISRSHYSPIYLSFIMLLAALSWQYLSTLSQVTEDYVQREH
Assay: inhibitory activity against squalene synthetase with liver microsome of cholestyramine-treated rat
Type: biochemical
Details: liver microsome of cholestyramine-treated Sprague-Dawley rat; 10 μM 3H-FPP, pH 7.4, 37° C., 10 min
Protocol: Determination of inhibitory activity against squalene synthetase with liver microsome of cholestyramine-treated rat
1 mM NADPH (nicotinamide adenine dinucleotide phosphate)
10 μM ^3 H-FPP (farnesylpyrophosphoric acid) (10 mCi/mmol, a product of New England Nuclea Co.)
0.1 mg/ml liver microsome of rat 37° C., 10 min.
These components were put in a spit tube as follows: […]
______________________________________
sample solution of 5-fold concentration
1 mg/ml liver microsome of rat
The obtained mixture was preincubated at 37° C. for 5 minutes. 50 μl of 100 μM ^3 H-FPP (10 mCi/mmol; NEN) was added to the resulting mixture to initiate a reaction. After 10 minutes, 1 ml of 4N NaOH was added to the mixture to stop the reaction, followed by the addition thereto of 1 ml of ethanol. The obtained mixture was incubated at 80° C. for 12 hours, cooled with ice and extracted with petroleum ether twice. The petroleum ether layers were separated from the aqueous layer and evaporated to dryness with nitrogen gas. The residue was dissolved in 25 μl of chloroform containing squalene, famesol and cholesterol as markers. The obtained solution was applied to TLC (Empore; 412001-1) and developed under the following conditions:
benzene/isopropyl ether (1: 1), 6 min.
The band of squalene was cut from the plate and examined for radioactivity with a liquid scintillation counter to determine the inhibitory ratio.
(2) Preparation of Liver Microsome of Rat
A Sprague-Dawley rat was fed with food containing 2% of cholestyramine (Dowex 1-X2) for at least 5 days to enhance the cholesterol-biosynthesizing activity of the rat. At midnight (0:00), the liver was extirpated from the rat and washed with a 1.154 (w/v) ice-cooled KCl solution to remove the blood from the liver. The resulting liver was cut into small pieces with scissors, homogenized with a Teflon homogenizer of the loose fitting type and subjected to centrifugation (700 g, 10 min). The obtained supernatant was further subjected to centrifugation (15,000 g, 20 min) and the obtained supernatant was furthermore subjected to centrifugation (105,000 g 60 min) to be separated into a microsome fraction and a supernatant. This microsome fraction was washed with a 0.1M potassium phosphate buffer (pH: 7.4) once and suspended in a 0.1M potassium phosphate buffer in the liver concentration of 3 g/ml. The obtained suspension was examined for protein concentration by the Lowry method and the protein concentration was adjusted to 20 mg/ml.
IC50 values of the squalene synthetase inhibiting activity are given in Tables 1 to 5, wherein Me represents a methyl group and Et an ethyl group.

SMILES | IC50 [nM]
CC(C)=CCC/C(C)=C/CC/C(C)=C/CC(P(=O)(O)O)P(=O)(O)O [Example 13, (E,E)-4,8,12-Trimethyl-37,11-tridecatrienyl-1,1-bis(phosphonic acid disodium salt)] | 3
CC(C)=CCC/C(C)=C/CC(P(=O)(O)O)P(=O)(O)O [Example 15, (E)-4,8-Dimethyl3,7-nonadienyl-1,1-bis(phosphonic acid disodium salt)] | 300
CC(C)=CCC/C(C)=C/CC/C(C)=C/CN(C)CCCC(P(=O)(O)O)P(=O)(O)O [Example 17, 4-{(E,E)-N-Methyl-3,7,11-trimethyl-2,6,10-dodecatrienylamino}butyl-1,1-bis(phosphonic acid disodium salt)] | 2
CC(C)=CCC/C(C)=C/CCC(C)N(C)CCCC(P(=O)(O)O)P(=O)(O)O (centres unmarked) [Example 18, 4-{(E)-N-Methyl-1,5,9-trimethyl-4,8-decadienylamino}-butyl-1,1-bis(phosphonic acid disodium salt)] | 3
CCOP(=O)(O)C(CC/C=C(\C)CC/C=C(\C)CCC=C(C)C)C(=O)O (centres unmarked) [Example 29, Disodium salt of ethyl(E,E)-1-carboxy-5,9,13-trimethyl-4,8,12-tetradecatrienylphosphonate] | 7300
CCOP(=O)(O)C(C/C=C/C=C(\C)CC/C=C(\C)CCC=C(C)C)C(=O)O (centres unmarked) [Example 30, Disodium salt of ethyl (E,E,E)-1-carboxy-6,10,14-trimethyl-3,5,9,13-pentadecatetraenylphosphonate] | 7100
CCOC(=O)C(C/C=C(\C)CC/C=C(\C)CCC=C(C)C)P(=O)(O)O (centres unmarked) [Example 31, Disodium (E,E)-1-carboethoxy4,8,12-trimethyl-3,7,11-tridecatrienylphosphonate] | 9400
CC(C)=CCC/C(C)=C/CC/C(C)=C/C=C/CC(C(=O)O)P(=O)(O)O (centres unmarked) [Example 34, Trisodium salt of (E,E,E)-1-carboxy-6,10,14-trimethyl-3,5,9,13-pentadecatetraenylphosphonic acid] | 600
CC(C)=CCC/C(C)=C/CC/C(C)=C/CN(C)CCCC(C(=O)O)P(=O)(O)O (centres unmarked) [Example 35, Trisodium salt of 1-carboxy,4-{(E,E)-N-methyl-3,7,11-trimethyl-2,6,10-dodecatrienylamino}burylphosphonic acid] | 20
CC(C)=CCC/C(C)=C/CN(C)CCCC(P(=O)(O)O)P(=O)(O)O [Example 43, 4-{(E)-N-Methyl-3,7-dimethyl-2,6-octadienylamino}butyl 1,1-bis(phosphonic acid disodium salt)] | 3
CCN(C/C=C(\C)CCC=C(C)C)CCCC(P(=O)(O)O)P(=O)(O)O [Example 44, 4-{(E)-N-Ethyl-3,7-dimethyl-2,6-octadienylamino}butyl-1,1-bis(phosphoric acid disodium salt)] | 3
CC(C)=CCC/C(C)=C/CNCCCC(P(=O)(O)O)P(=O)(O)O [Example 45, 4-{(E)-3,7-Dimethyl-2,6-octadienylamino}butyl-1,1-bis(phosphonic acid disodium salt)] | 3
CC(C)=CCC/C(C)=C/CC/C(C)=C/CN(C)C(P(=O)(O)O)P(=O)(O)O [Example 48, {(E,E)-N-Methyl-3,7,11-trimethyl-2,6,10-dodecatrienylamino}methylbis(phosphonic acid disodium salt)] | 1
CC(C)=CCC/C(C)=C/CC/C(C)=C/CN(C)CCCCC(P(=O)(O)O)P(=O)(O)O [Example 49, 5-{(E,E)-N-Methyl-3,7,11-trimethyl-2,6,10-dodecatrienylamino}pentyl-1,1-bis(phosphonic acid disodium salt)] | 2

The remaining compounds from weak to strong by IC50, led by results:

IC50 [nM] | SMILES
1600 | CC(C)=CCC/C(C)=C/CC/C(C)=C/CC(C(=O)O)P(=O)(O)O (centres unmarked) [Example 32, Trisodium salt of (E,E)-carboxy-4,8,12-trimethyl-3,7,11-tridecatrienylphosphonic acid]
180 | CC(C)=CCC/C(C)=C/CC/C(C)=C/CCC(C(=O)O)P(=O)(O)O (centres unmarked) [Example 33, Trisodium salt of-(E,E)-1-carboxy-5,9,13-trimethyl-4,8,12-tetradecatrienylphosphonic acid]
14 | CC(C)=CCC/C(C)=C/CCC(C)N(C)CCCC(C(=O)O)P(=O)(O)O (centres unmarked) [Example 51, Trisodium salt of 1-carboxy-4,{(E)-N-methyl-1,5,9-trimethyl-4,8-decadienylamino}butylphosphonic acid]
8 | CC(C)=CCC/C(C)=C/CC/C(C)=C/CC/C(C)=C/CC(P(=O)(O)O)P(=O)(O)O [Example 16, (E,E,E)-4,8,12,16-Tetramethyl-3,7,11,15-heptadecatetraenyl-1,1-bis(phosphonic acid disodium salt)]
5 | CC(C)=CCC/C(C)=C/CC/C(C)=C/CCC(P(=O)(O)O)P(=O)(O)O [Example 14, (E,E)-5,9,13-Trimethyl-4,8,12-tetradecatrienyl-1,1-bis(phosphonic acid disodium salt)]
2 | C/C(=C\CC/C(C)=C/CC(P(=O)(O)O)P(=O)(O)O)CC/C=C/c1ccccc1 [Example 20, (E,E,E)-4,8-Dimethyl-12-phenyl-3,7,11-dodecatrienyl-1,1-bis(phosphonic acid disodium salt)]
2 | CC(C)=CCC/C(C)=C/CCC(C)N(C)CCCCC(P(=O)(O)O)P(=O)(O)O (centres unmarked) [Example 46, 5-{(E}-N-Methyl-1,5,9-trimethyl-4,8-decadienylamino}-pentyl-1,1-bis(phosphonic acid disodium salt)]
2 | CC(C)=CCC/C(C)=C/CC/C(C)=C/CNC(P(=O)(O)O)P(=O)(O)O [Example 47, {(E,E)-3,7,11-Trimethyl-2,6,10-dodecatrienylamino}-methylbis(phosphonic acid sodium salt)]
1 | CC(C)=CCC/C(C)=C/CCN(C)CCCC(P(=O)(O)O)P(=O)(O)O [Example 19, 4-{(E)-N-Methyl-4,8-dimethyl-3,7-nonadienylamino}-butyl-1,1-bis(phosphonic acid disodium salt)]
1 | C/C(=C\CC(P(=O)(O)O)P(=O)(O)O)CC/C=C(\C)c1ccccc1 [Example 21, (E,E)-4-Methyl-8-phenyl-3,7-nonadienyl-1,1-bis(phosphonic acid disodium salt)]
1 | C/C(=C\CC(P(=O)(O)O)P(=O)(O)O)CC/C=C/c1ccccc1 [Example 22, (E,E)-4-Methyl-8-phenyl-3,7-octadienyl-1,1-bis(phosphonic acid disodium salt)]
0.5 | C/C(=C\CN(C)CCCC(P(=O)(O)O)P(=O)(O)O)CC/C=C(\C)c1ccccc1 [Example 23, 4-{(E,E)-N-Methyl-3-methyl-7-phenyl-2,6-octadienylamino}-butyl-1,1-bis(phosphonic acid disodium salt)]
